The record followed here is patent US10407445B2, “Hepatitis C virus inhibitors” (ENANTA PHARMACEUTICALS, INC., priority 2013, dated 2019).

Common to all, as to format: cell-based
Details in all cases: Hepatitis C virus

The subject of one assay is GT2a-6a-HK6a replicon. Briefly: Stable replicon assay, comparison to daclatasvir, GT2a-6a-HK6a. An excerpt: (§1) The plasmid pSG-hRlucNeo-JFH1 was generated from pSG-Neo-JFH1 (Kato et al. 2003, Gastroentrology 125:1808-1817). A fragment containing the JFH-1 5′ NTR-hRluc-Neo gene and two unique restriction sites (AgeI and PmeI) was synthesized (Integrated DNA Technologies, Coralville, Iowa). The resulting plasmid was digested with AgeI and PmeI and the excised fragment (5′NTR-hRluc-Neo) was ligated into pSG-Neo-JFH1 digested with the same enzymes to generate pSG-hRlucNeo-JFH1. To allow expression of heterologous NS5A sequences, an NS5A shuttle vector was generated from pSG-Neo-JFH1, in which the entire coding sequence of NS5A plus the first eight codons of NS5B were replaced with an AfeI restriction site. This was done by Infusion cloning (Clontech, Mountain View, Calif.) from two PCR products that were generated using pSG-Neo-JFH1 as a template and the following primer pairs:
To express GT6a NS5A chimeric sequences a JFH1-based N-terminal NS5A (NS5A residues 2-107) shuttle vector was constructed by Infusion cloning from two PCR products that were generated using pSG-Neo-JFH1 as a template and the following primers: […]
Purified PCR products were inserted into an NsiI/SnaBI digested pSG-Neo-JFH1 vector by Infusion cloning following the manufacturer's instructions to generate pSG-Neo-JFH1-Nterm_5Ashuttle. […]

Assay [1] concerns HCV genotype 1a replicon, NS5A Y93N. As to the kind of experiment: Transient replication assay, GT1a NS5A Y93N.
The test system of another assay is GT2a-2a-J6 replicon. Briefly: Stable replicon assay, comparison to daclatasvir, GT2a-2a-J6.
Description: as §1, with “pairs: […]” for “pairs:”
(§2) Stable HCV replicon cell lines were grown in complete media (Dulbecco's modified Eagle medium [DMEM], 2 mM L-glutamine, 0.1 mM essential amino acids, 1 mM sodium pyruvate, 10% fetal bovine serum) with the addition 500 μg/ml […] (G418). […] For stable and transient replicon assays, luciferase activity of compound-treated cells was measured relative to DMSO-treated cells after 72 h incubation using RENILLA-GLO™ Luciferase Assay (Promega). […]
Background: A replicon is a self-replicating genome or part of one, used to study replication in cells.

The test system of assay [2] is HCV genotype 1a replicon, NS5A L31V. As to the kind of experiment: Transient replication assay, GT1a NS5A L31V.
Assay [3] relates to HCV genotype 1a replicon, NS5A K24E Q30R. Briefly: Transient replication assay, GT1a NS5A K24E Q30R.
The test system of assay [4] is HCV genotype 1a replicon, NS5A Q30R. Briefly: Transient replication assay, GT1a NS5A Q30R.
The subject of another assay is GT2a-2b-J8 replicon. As to the kind of experiment: Stable replicon assay, comparison to daclatasvir, GT2a-2b-J8.
Description: as §1, with “pairs: […]” for “pairs:”
as §2

For assay [5], the system named is HCV genotype 1a replicon, NS5A Q30R Y93H. Briefly: Transient replication assay, GT1a NS5A Q30R Y93H.
Assay [6] has as its system HCV genotype 1a replicon, NS5A Q30R Y93C. As to the kind of experiment: Transient replication assay, GT1a NS5A Q30R Y93C.

What is called EC50 is the concentration giving half of the maximal effect. A lower EC50 goes with a more potent agent. Turning to `COC(=O)N[C@H](C(=O)N1C[C@]2(CCCOC2)C[C@H]1c1ncc(-c2ccc(-c3ccc4c(ccc5nc([C@@H]6C[C@@H]7CCC[C@@H]7N6C(=O)[C@@H](NC(=O)OC)C(C)C)[nH]c54)c3)cc2)[nH]1)C(C)C` [Compound 16], the EC50 in the assay with GT2a-6a-HK6a replicon was determined as 0.002 nM; in [1], 19 nM; with GT2a-2a-J6 replicon, 0.49 nM; in [2] it was 0.15 nM; in assay [3], 1.8 nM; in assay [4] it was 0.012 nM. Moreover, the EC50 in the assay on GT2a-2b-J8 replicon is 9.9 nM; in [5], 38 nM; in assay [6], 1.4 nM.
As for `COC(=O)N[C@H](C(=O)N1CCC[C@H]1c1nc(-c2ccc(-c3ccc(-c4c[nH]c([C@@H]5CCCN5C(=O)[C@@H](NC(=O)OC)C(C)C)n4)cc3)cc2)c[nH]1)C(C)C` [Daclatasvir, reference compound], the EC50 in the assay with GT2a-6a-HK6a replicon was determined as 0.005 nM; in [1], 119 nM; with GT2a-2a-J6 replicon it was 5.8 nM; in assay [2] it was 4.5 nM; in assay [3], 3.5 nM; in assay [4], 3.4 nM. Moreover, the EC50 came to 20 nM in the assay with GT2a-2b-J8 replicon, 243 nM in assay [5] and 26 nM in assay [6].
